Test: Stability of azithromycin at acid pH / in stomach juices
Type: physicochemical
Description: Thus, without being bound to any mechanism of action, it is surprising that rapid disintegration in the GI tract appears to be of importance to the invention.

stability at low (acid) pH (on the order of the pH of stomach acid): unstable | stability on exposure to stomach juices (stomach juices, acid pH): breaks down
SMILES: CC[C@H]1OC(=O)[C@H](C)[C@@H](O[C@H]2C[C@@](C)(OC)[C@@H](O)[C@H](C)O2)[C@H](C)[C@@H](O[C@@H]2O[C@H](C)C[C@H](N(C)C)[C@H]2O)[C@](C)(O)C[C@@H](C)CN(C)[C@H](C)[C@@H](O)[C@]1(C)O [azithromycin, 9a-aza-9a-methyl-9-deoxo-9a-homoerythromycin A]

— patent publication USRE39149E1, “Method of administering azithromycin” (Pfizer Inc., priority 1994, dated 2006)
